Results from ChEMBL document CHEMBL5608163, “Structure modification of anoplin for fighting resistant bacteria” (Eur J Med Chem, 2024).
Values after ≈ are worked out from the molar mass of the structure shown. Square brackets hold non-standard residues; d marks the D form. Peptide text beside a SMILES is read from it. βAla = NCCC(=O)O

What was measured:
[1] = tested on: Erythrocyte; assay: Hemolytic activity in mouse Red blood cells incubated for 1 hr by microplate reader assay; type: toxicity, cell-based; conditions: erythrocyte, 1 h
[2] = tested on: Klebsiella pneumoniae; assay: Antimicrobial activity against Klebsiella pneumoniae assessed as reduction in bacterial growth incubated for 18 to 20 hrs by Mueller-Hinton broth based microdilution method; type: functional; conditions: time 18-20 hrs
[3] = tested on: Staphylococcus aureus; assay: Antibacterial activity against Staphylococcus aureus ATCC 25923 assessed as reduction in bacterial growth incubated for 18 to 20 hrs by Mueller Hinton broth dilution method; type: functional; conditions: time 18-20 hrs
[4] = tested on: Escherichia coli; assay: Antibacterial activity against Escherichia coli ATCC 25922 assessed as reduction in bacterial growth incubated for 18 to 20 hrs by Mueller Hinton broth dilution method; type: functional; conditions: time 18-20 hrs
[5] = tested on: Pseudomonas aeruginosa; assay: Antibacterial activity against Pseudomonas aeruginosa ATCC 27853 assessed as reduction in bacterial growth incubated for 18 to 20 hrs by Mueller Hinton broth dilution method; type: functional; conditions: time 18-20 hrs
[6] = tested on: Bacillus subtilis; assay: Antibacterial activity against Bacillus subtilis ATCC 23857 assessed as reduction in bacterial growth incubated for 18 to 20 hrs by Mueller Hinton broth dilution method; type: functional; conditions: time 18-20 hrs
[7] = tested on: Erythrocyte; assay: Hemolytic activity in mouse Red blood cells incubated for 1 hr; type: toxicity, cell-based
[8] = tested on: Staphylococcus epidermidis; assay: Antibacterial activity against Staphylococcus epidermidis ATCC 12228 assessed as reduction in bacterial cell growth incubated for 18 hrs by two fold serial microdilution method; type: functional
[9] = tested on: Staphylococcus aureus; assay: Antibacterial activity against Staphylococcus aureus ATCC 25923 assessed as reduction in bacterial cell growth incubated for 18 hrs by two fold serial microdilution method; type: functional
[10] = tested on: Pseudomonas aeruginosa; assay: Antibacterial activity against Pseudomonas aeruginosa ATCC 27853 assessed as reduction in bacterial cell growth incubated for 18 hrs by two fold serial microdilution method; type: functional
[11] = tested on: Escherichia coli; assay: Antibacterial activity against Escherichia coli ATCC 25922 assessed as reduction in bacterial cell growth incubated for 18 hrs by two fold serial microdilution method; type: functional
[12] = tested on: Acinetobacter baumannii; assay: Antibacterial activity against Acinetobacter baumannii ATCC 19606 assessed as inhibition in bacterial growth incubated for 20 to 24 hrs by CLSI based broth microdilution method; type: functional; conditions: time 20-24 hrs
[13] = tested on: Klebsiella pneumoniae; assay: Antibacterial activity against Klebsiella pneumoniae ATCC 700603 assessed as reduction in bacterial cell growth incubated for 18 hrs by two fold serial microdilution method; type: functional
[14] = Hemolytic activity in human RBC; type: toxicity, cell-based, Erythrocyte; conditions: red blood cells
[15] = tested on: Escherichia coli; assay: Antibacterial activity against Escherichia coli ATCC 25922 assessed as reduction in bacterial growth by broth microdilution method; type: functional
[16] = tested on: Staphylococcus aureus; assay: Antibacterial activity against Staphylococcus aureus ATCC 25923 assessed as reduction in bacterial growth incubated for 18 to 24 hrs by broth microdilution method; type: functional; conditions: time 18-24 hrs

Row | SMILES | HC10 [1] | MIC [2] | MIC [3] | MIC [4] | MIC [5] | MIC [6] | further results
1 | CC[C@H](C)[C@H](NC(=O)[C@H](CCCNC(=N)N)NC(=O)[C@H](CCCCN)NC(=O)[C@@H](CC(C)C)NC(=O)[C@@H](CC(C)C)NC(=O)CN)C(=O)N[C@@H](CCCCN)C(=O)N[C@H](C(=O)N[C@@H](CC(C)C)C(=O)N[C@@H](CC(C)C)C(N)=O)[C@@H](C)O | > 300 µM | > 256 µM | > 256 µM | 128 µM (≈ 148 µg/mL) | 8 µM (≈ 9.23 µg/mL) | 16 µM (≈ 18.5 µg/mL) | 
2 | CC[C@H](C)[C@H](NC(=O)[C@H](CCCNC(=N)N)NC(=O)[C@H](CCCCN)NC(=O)[C@H](CC(C)C)NC(=O)[C@H](CC(C)C)NC(=O)CN)C(=O)N[C@@H](CCCCN)C(=O)N[C@H](C(=O)N[C@H](CC(C)C)C(=O)N[C@H](CC(C)C)C(N)=O)[C@@H](C)O | > 300 µM | 128 µM (≈ 148 µg/mL) | 64 µM (≈ 73.8 µg/mL) | 256 µM (≈ 295 µg/mL) | 8 µM (≈ 9.23 µg/mL) | 8 µM (≈ 9.23 µg/mL) | 
3 | CC[C@H](C)[C@H](NC(=O)CCNC(=O)[C@H](CCCCN)NC(=O)[C@H](CC(C)C)NC(=O)[C@H](CC(C)C)NC(=O)CN)C(=O)N[C@@H](CCCCN)C(=O)N[C@H](C(=O)N[C@@H](CC(C)C)C(=O)N[C@@H](CC(C)C)C(N)=O)[C@@H](C)O (H-GLLK[βAla]IKTLL-NH2) |  |  |  |  |  |  | HC10 [7]: > 256 µM; MIC [8]: 32 µM (≈ 34.2 µg/mL); MIC [9]: > 128 µM; MIC [10]: 16 µM (≈ 17.1 µg/mL); MIC [11]: > 128 µM; MIC [12]: > 128 µM; MIC [13]: > 128 µM
4 | CC[C@H](C)[C@H](NC(=O)[C@H](CCCNC(=N)N)NC(=O)[C@H](CCCCN)NC(=O)[C@H](CC(C)C)NC(=O)[C@H](CC(C)C)NC(=O)CN)C(=O)N[C@@H](CCCCN)C(=O)NCCC(=O)N[C@@H](CC(C)C)C(=O)N[C@@H](CC(C)C)C(N)=O (H-GLLKRIK[βAla]LL-NH2) |  |  |  |  |  |  | HC10 [7]: > 256 µM; MIC [8]: 16 µM (≈ 18 µg/mL); MIC [9]: 128 µM (≈ 144 µg/mL); MIC [10]: 4 µM (≈ 4.49 µg/mL); MIC [11]: 32 µM (≈ 36 µg/mL); MIC [12]: > 128 µM; MIC [13]: 128 µM (≈ 144 µg/mL)
5 | CC[C@H](C)[C@H](NC(=O)[C@H](CCCNC(=N)N)NC(=O)[C@H](CCCCN)NC(=O)[C@H](CC(C)C)NC(=O)[C@H](CC(C)C)NC(=O)CCN)C(=O)N[C@@H](CCCCN)C(=O)N[C@H](C(=O)N[C@@H](CC(C)C)C(=O)N[C@@H](CC(C)C)C(N)=O)[C@@H](C)O (H-[βAla]LLKRIKTLL-NH2) |  |  |  |  |  |  | HC10 [7]: > 256 µM; MIC [8]: 8 µM (≈ 9.34 µg/mL); MIC [9]: 128 µM (≈ 149 µg/mL); MIC [10]: 8 µM (≈ 9.34 µg/mL); MIC [11]: 32 µM (≈ 37.4 µg/mL); MIC [12]: 128 µM (≈ 149 µg/mL); MIC [13]: 128 µM (≈ 149 µg/mL)
6 | CC[C@H](C)[C@H](NC(=O)[C@H](CCCNC(=N)N)NC(=O)[C@H](CCCCN)NC(=O)[C@H](CC(C)C)NC(=O)[C@H](CC(C)C)NC(=O)CN)C(=O)N[C@H](CCCCN)C(=O)N[C@@H](C(=O)N[C@@H](CC(C)C)C(=O)N[C@@H](CC(C)C)C(N)=O)[C@H](C)O | > 300 µM | > 256 µM | > 256 µM | > 25 µM | 128 µM (≈ 148 µg/mL) | 64 µM (≈ 73.8 µg/mL) | 
7 | CC[C@H](C)[C@H](NC(=O)[C@H](CCCNC(=N)N)NC(=O)[C@@H](CCCCN)NC(=O)[C@H](CC(C)C)NC(=O)[C@H](CC(C)C)NC(=O)CN)C(=O)N[C@@H](CCCCN)C(=O)N[C@@H](C(=O)N[C@@H](CC(C)C)C(=O)N[C@@H](CC(C)C)C(N)=O)[C@H](C)O |  | > 256 µM | > 256 µM | 256 µM (≈ 295 µg/mL) | 128 µM (≈ 148 µg/mL) | 32 µM (≈ 36.9 µg/mL) | 
8 | CC[C@H](C)[C@H](NC(=O)[C@H](CCCNC(=N)N)NC(=O)[C@H](CCCCN)NC(=O)[C@H](CC(C)C)NC(=O)[C@H](CC(C)C)NC(=O)CN)C(=O)N[C@@H](C)C(=O)N[C@H](C(=O)N[C@@H](CC(C)C)C(=O)N[C@@H](CC(C)C)C(N)=O)[C@@H](C)O (H-GLLKRIATLL-NH2) |  |  |  |  |  |  | HC50 [14]: 121 µM; MIC [15]: 10.1 µM (≈ 11.1 µg/mL); MIC [16]: 10.1 µM (≈ 11.1 µg/mL)
9 | CC[C@H](C)[C@H](NC(=O)[C@H](CCCNC(=N)N)NC(=O)[C@H](CCCCN)NC(=O)[C@@H](CC(C)C)NC(=O)[C@H](CC(C)C)NC(=O)CN)C(=O)N[C@@H](CCCCN)C(=O)N[C@H](C(=O)N[C@H](CC(C)C)C(=O)N[C@@H](CC(C)C)C(N)=O)[C@@H](C)O | > 300 µM | 256 µM (≈ 295 µg/mL) | > 256 µM | 32 µM (≈ 36.9 µg/mL) | 8 µM (≈ 9.23 µg/mL) | 16 µM (≈ 18.5 µg/mL) | 
10 | CC[C@H](C)[C@H](NC(=O)[C@H](CCCNC(=N)N)NC(=O)[C@H](CCCCN)NC(=O)[C@H](CC(C)C)NC(=O)[C@@H](CC(C)C)NC(=O)CN)C(=O)N[C@@H](CCCCN)C(=O)N[C@H](C(=O)N[C@@H](CC(C)C)C(=O)N[C@H](CC(C)C)C(N)=O)[C@@H](C)O | > 300 µM | > 256 µM | > 256 µM | 128 µM (≈ 148 µg/mL) | 64 µM (≈ 73.8 µg/mL) | 64 µM (≈ 73.8 µg/mL) | 
11 | CC[C@H](C)[C@H](NC(=O)[C@H](CCCNC(=N)N)NC(=O)[C@H](CCCCN)NC(=O)[C@@H](CC(C)C)NC(=O)[C@H](CC(C)C)NC(=O)CN)C(=O)N[C@@H](CCCCN)C(=O)N[C@H](C(=O)N[C@H](CC(C)C)C(=O)N[C@H](CC(C)C)C(N)=O)[C@@H](C)O | > 300 µM | 64 µM (≈ 73.8 µg/mL) | 64 µM (≈ 73.8 µg/mL) | 256 µM (≈ 295 µg/mL) | 8 µM (≈ 9.23 µg/mL) | 8 µM (≈ 9.23 µg/mL) | 
12 | CC[C@H](C)[C@H](NC(=O)[C@H](CCCNC(=N)N)NC(=O)[C@H](CCCCN)NC(=O)[C@H](CC(C)C)NC(=O)[C@H](CC(C)C)NC(=O)CN)C(=O)N[C@@H](CCCCN)C(=O)N[C@@H](C)C(=O)N[C@@H](CC(C)C)C(=O)N[C@@H](CC(C)C)C(N)=O (H-GLLKRIKALL-NH2) |  |  |  |  |  |  | HC50 [14]: 86.5 µM; MIC [15]: 14.3 µM (≈ 16.1 µg/mL); MIC [16]: 7.1 µM (≈ 7.98 µg/mL)
13 | CC(C)C[C@H](NC(=O)[C@H](CC(C)C)NC(=O)[C@@H](NC(=O)[C@H](CCCCN)NC(=O)[C@H](C)NC(=O)[C@H](CCCNC(=N)N)NC(=O)[C@H](CCCCN)NC(=O)[C@H](CC(C)C)NC(=O)[C@H](CC(C)C)NC(=O)CN)[C@@H](C)O)C(N)=O (H-GLLKRAKTLL-NH2) |  |  |  |  |  |  | MIC [15]: > 36.9 µM; MIC [16]: > 36.9 µM
14 | CC[C@H](C)[C@H](NC(=O)[C@H](C)NC(=O)[C@H](CCCCN)NC(=O)[C@H](CC(C)C)NC(=O)[C@H](CC(C)C)NC(=O)CN)C(=O)N[C@@H](CCCCN)C(=O)N[C@H](C(=O)N[C@@H](CC(C)C)C(=O)N[C@@H](CC(C)C)C(N)=O)[C@@H](C)O (H-GLLKAIKTLL-NH2) |  |  |  |  |  |  | HC50 [14]: 151 µM; MIC [15]: 4.7 µM (≈ 5.02 µg/mL); MIC [16]: 9.4 µM (≈ 10 µg/mL)
15 | CC[C@H](C)[C@H](NC(=O)[C@@H](CCCNC(=N)N)NC(=O)[C@H](CCCCN)NC(=O)[C@H](CC(C)C)NC(=O)[C@H](CC(C)C)NC(=O)CN)C(=O)N[C@H](CCCCN)C(=O)N[C@H](C(=O)N[C@@H](CC(C)C)C(=O)N[C@@H](CC(C)C)C(N)=O)[C@@H](C)O | > 300 µM | 256 µM (≈ 295 µg/mL) | > 256 µM | 256 µM (≈ 295 µg/mL) | 32 µM (≈ 36.9 µg/mL) | 32 µM (≈ 36.9 µg/mL) | 
16 | CC[C@H](C)[C@H](NC(=O)[C@H](CCCNC(=N)N)NC(=O)[C@@H](CCCCN)NC(=O)[C@H](CC(C)C)NC(=O)[C@H](CC(C)C)NC(=O)CN)C(=O)N[C@H](CCCCN)C(=O)N[C@H](C(=O)N[C@@H](CC(C)C)C(=O)N[C@@H](CC(C)C)C(N)=O)[C@@H](C)O | > 300 µM | 256 µM (≈ 295 µg/mL) | > 256 µM | 256 µM (≈ 295 µg/mL) | 64 µM (≈ 73.8 µg/mL) | 64 µM (≈ 73.8 µg/mL) | 
17 | CC[C@H](C)[C@H](NC(=O)[C@@H](CCCNC(=N)N)NC(=O)[C@H](CCCCN)NC(=O)[C@H](CC(C)C)NC(=O)[C@H](CC(C)C)NC(=O)CN)C(=O)N[C@@H](CCCCN)C(=O)N[C@@H](C(=O)N[C@@H](CC(C)C)C(=O)N[C@@H](CC(C)C)C(N)=O)[C@H](C)O | > 300 µM | > 256 µM | > 256 µM | 256 µM (≈ 295 µg/mL) | 128 µM (≈ 148 µg/mL) | 32 µM (≈ 36.9 µg/mL) | 
